Tests used:
A2780 cells [1] = experiment: Cell cycle analysis by flow cytometry, A2780; type: cell-based; details: A2780, 0.5 µM, 48 h
Procedure: (§1) The effect of the compounds on cell cycle distribution was evaluated following a previously reported method. Briefly, six-well plates (Sigma-Aldrich, NSW, Australia) were seeded with about 1–2 × 10^5 cells/well in 2 mL growth medium, incubated at 37 °C and 5% CO2 overnight, and treated with various concentrations of the test compounds and incubated for 48 h. The wells were collected by trypsinization, transferred into fluorescence-activating cell sorting (FACS) tubes, washed with 1 × phosphate-buffered saline (1 × PBS) twice, fixed in 70% (v/v) ice-cold ethanol for 15 min, and centrifuged at 300× g for 5 min. The cell pellets were then collected, stained with 200 µL of the cell cycle solution (comprising 50.0 μg/mL PI, 0.1 mg/mL RNase A, and 0.05% Triton X-100), and incubated for 1.5 h at room temperature in the dark. Finally, the DNA content was determined by a flow cytometer (CytoFLEX) and analyzed by CytExpert 2.1 software (Beckman Coulter, Brea, CA, USA).

OVCAR5 cells [2] = experiment: Colony formation (crystal violet), OVCAR5; type: cell-based; details: OVCAR5, 10 days; 15 at 0.5 and 2 µM, CYC065 at 0.5 µM
Procedure: (§2) Briefly, ovarian cancer cells (i.e., A2780, OVCAR5, and OV90) seeded in six-well plates were adhered for 6 h and treated with 15. The medium that contained the compound was then changed every 72 h. Ten days after treatment, the cells were washed with PBS, fixed, and stained with crystal violet staining solution (0.05% crystal violet, 1% formaldehyde, 1% PBS, and 1% ethanol), and colonies were quantified using ImageJ software (National Institute of Health, Maryland, USA), with data presented as percentages of the control cells.

A2780 cells [3] = experiment: Annexin V/PI apoptosis assay, A2780; type: cell-based; details: A2780, 0.5 µM, 48 h
Procedure: (§3) Annexin V-fluorescein isothiocyanate (FITC) apoptosis detection kit I (consisting of a ten-time stock solution of binding buffer, FITC–annexin V, and PI staining solution) was used to determine the effect of the compounds on cancer cell survival as previously reported. Briefly, six-well plates (Sigma-Aldrich, NSW, Australia) were seeded with about 1–2 × 10^5 cells/well in 2 mL growth medium, incubated at 37 °C and 5% CO2 overnight, treated with various concentrations of the test compounds, and incubated for 48 h. The wells were collected by trypsinization, transferred into FACS tubes, washed twice with 1 × PBS, and centrifuged at 300× g for 5 min. The pellets were then suspended in 100 µL of 1 × binding buffer and incubated in the dark with 3 µL of PI and 3 µL of FITC-conjugated annexin V solutions for 15 min. Finally, 200 µL of binding buffer was added to each sample and analyzed by the CytoFLEX cytometer. The extent of apoptotic cell death was quantified as the sum of the percentages of early apoptotic cells (annexin V-positive and PI-negative) and late apoptotic cells (both annexin–V- and PI-positive) and presented graphically as a contour diagram relative to the untreated control.

OV90 cells = experiment: Colony formation (crystal violet), OV90; type: cell-based; details: OV90, 10 days; 15 at 0.5 and 2 µM, CYC065 at 0.5 µM
Procedure: as §2

A2780 cells [4] = experiment: Colony formation (crystal violet), A2780; type: cell-based; details: A2780, 10 days; 15 at 0.5 and 2 µM, CYC065 at 0.5 µM
Procedure: as §2

OVCAR5 cells [5] = experiment: Annexin V/PI apoptosis assay, OVCAR5; type: cell-based; details: OVCAR5, 0.5 µM, 48 h
Procedure: as §3

OVCAR5 cells [6] = experiment: Cell cycle analysis by flow cytometry, OVCAR5; type: cell-based; details: OVCAR5, 0.5 µM, 48 h
Procedure: as §1

[7] = tested on: A2780 ovarian cancer cells; design: method as in PMID 36706608; details: previously reported data for 1; cited from earlier work
CDK1/cyclin B (CDK1B) = CDK1/cyclin B (CDK1B) (Homo sapiens, UniProt P06493); design: method as in PMID 36706608; details: previously reported data for 1; cited from earlier work
Sequence of CDK1/cyclin B (CDK1B) (P06493 whole entry): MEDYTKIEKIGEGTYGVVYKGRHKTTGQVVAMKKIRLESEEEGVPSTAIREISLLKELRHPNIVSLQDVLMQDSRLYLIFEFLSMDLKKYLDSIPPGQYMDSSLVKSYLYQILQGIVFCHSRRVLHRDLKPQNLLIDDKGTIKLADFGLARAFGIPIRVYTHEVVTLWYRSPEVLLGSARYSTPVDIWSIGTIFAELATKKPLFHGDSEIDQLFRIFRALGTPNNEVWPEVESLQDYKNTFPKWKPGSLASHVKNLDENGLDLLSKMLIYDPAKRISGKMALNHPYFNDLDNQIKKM
Sequence of CDK1/cyclin B (CDK1B) (P14635 whole entry partner): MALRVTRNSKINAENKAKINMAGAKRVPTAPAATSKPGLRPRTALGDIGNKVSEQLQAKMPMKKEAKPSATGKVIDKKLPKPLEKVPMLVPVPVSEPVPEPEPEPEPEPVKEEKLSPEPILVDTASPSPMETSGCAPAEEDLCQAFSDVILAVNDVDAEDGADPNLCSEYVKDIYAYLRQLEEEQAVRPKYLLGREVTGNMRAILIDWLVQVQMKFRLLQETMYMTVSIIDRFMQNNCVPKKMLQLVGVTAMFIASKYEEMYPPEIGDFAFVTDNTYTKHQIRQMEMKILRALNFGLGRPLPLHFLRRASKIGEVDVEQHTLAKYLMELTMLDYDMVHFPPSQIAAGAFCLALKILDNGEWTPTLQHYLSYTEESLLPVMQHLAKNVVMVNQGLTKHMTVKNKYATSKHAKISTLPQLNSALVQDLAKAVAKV

CDK2/cyclin E (CDK2E) = CDK2/cyclin E (CDK2E) (Homo sapiens, UniProt P24941); design: method as in PMID 36706608; details: previously reported data for 1; cited from earlier work
CDK5/p25 (CDK5p25) = CDK5/p25 (CDK5p25) (Homo sapiens, UniProt Q00535); design: method as in PMID 36706608; details: previously reported data for 1; cited from earlier work
Sequence of CDK5/p25 (CDK5p25) (Q00535 whole entry): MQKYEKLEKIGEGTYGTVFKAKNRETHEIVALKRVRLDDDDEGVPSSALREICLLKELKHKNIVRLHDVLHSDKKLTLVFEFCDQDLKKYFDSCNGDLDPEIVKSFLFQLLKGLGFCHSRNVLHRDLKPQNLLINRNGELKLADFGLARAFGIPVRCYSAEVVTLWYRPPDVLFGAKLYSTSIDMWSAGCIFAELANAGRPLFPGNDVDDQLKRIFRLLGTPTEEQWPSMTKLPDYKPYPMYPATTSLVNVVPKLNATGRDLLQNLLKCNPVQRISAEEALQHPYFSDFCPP
Sequence of CDK5/p25 (CDK5p25) (Q15078 99-307 partner limits assumed): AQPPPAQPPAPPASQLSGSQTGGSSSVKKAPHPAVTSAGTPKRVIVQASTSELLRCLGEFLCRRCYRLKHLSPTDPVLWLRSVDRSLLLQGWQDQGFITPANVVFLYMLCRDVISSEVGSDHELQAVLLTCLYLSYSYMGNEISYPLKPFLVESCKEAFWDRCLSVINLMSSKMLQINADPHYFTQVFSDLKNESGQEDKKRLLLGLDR

CDK9/cyclin T1 (CDK9T1) = CDK9/cyclin T1 (CDK9T1) (Homo sapiens, UniProt P50750); design: method as in PMID 36706608; details: previously reported data for 1; cited from earlier work
Sequence of CDK9/cyclin T1 (CDK9T1) (P50750 whole entry): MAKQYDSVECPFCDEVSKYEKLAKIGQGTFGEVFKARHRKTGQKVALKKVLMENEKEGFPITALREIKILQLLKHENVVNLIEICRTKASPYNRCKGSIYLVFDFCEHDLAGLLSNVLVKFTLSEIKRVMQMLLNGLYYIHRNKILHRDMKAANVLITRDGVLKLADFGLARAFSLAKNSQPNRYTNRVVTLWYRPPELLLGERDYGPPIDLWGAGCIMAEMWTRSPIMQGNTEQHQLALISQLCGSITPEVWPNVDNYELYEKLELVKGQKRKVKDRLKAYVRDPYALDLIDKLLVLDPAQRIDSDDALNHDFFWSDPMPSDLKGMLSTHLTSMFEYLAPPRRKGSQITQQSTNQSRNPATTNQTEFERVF
Sequence of CDK9/cyclin T1 (CDK9T1) (O60563 whole entry partner): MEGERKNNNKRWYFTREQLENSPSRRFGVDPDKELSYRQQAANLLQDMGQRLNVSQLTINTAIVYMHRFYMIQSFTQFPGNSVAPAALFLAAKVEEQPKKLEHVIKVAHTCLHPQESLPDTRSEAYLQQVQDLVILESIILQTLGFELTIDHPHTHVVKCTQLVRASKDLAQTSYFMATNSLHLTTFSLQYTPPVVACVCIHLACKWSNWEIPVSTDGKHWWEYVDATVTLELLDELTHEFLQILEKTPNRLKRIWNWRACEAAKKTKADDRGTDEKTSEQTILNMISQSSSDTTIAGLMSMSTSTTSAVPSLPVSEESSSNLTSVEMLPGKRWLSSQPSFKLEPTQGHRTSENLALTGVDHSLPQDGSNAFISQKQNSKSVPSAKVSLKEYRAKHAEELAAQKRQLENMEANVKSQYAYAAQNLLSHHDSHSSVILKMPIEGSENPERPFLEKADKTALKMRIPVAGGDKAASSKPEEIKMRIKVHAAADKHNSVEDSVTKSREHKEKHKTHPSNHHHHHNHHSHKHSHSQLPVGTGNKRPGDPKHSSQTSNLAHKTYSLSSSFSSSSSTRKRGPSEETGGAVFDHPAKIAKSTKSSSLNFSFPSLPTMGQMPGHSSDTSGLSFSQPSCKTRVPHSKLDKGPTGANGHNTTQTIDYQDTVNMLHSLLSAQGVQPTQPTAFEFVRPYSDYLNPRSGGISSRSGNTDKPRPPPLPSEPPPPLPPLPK

| Compound | S-phase cells (A2780 cells [1]) | Sub-G1 cells (A2780 cells [1]) | effect on colony formation (OVCAR5 cells [2]) | apoptosis (annexin V positive, early + late) (A2780 cells [3]) | viability at 0.5 µM (A2780 cells [3]; Homo sapiens, read-out: Q1-LL, viable cells) | effect on colony formation (OV90 cells) | effect on colony formation (A2780 cells [4]) | viability at 0.5 µM (OVCAR5 cells [5]; Homo sapiens, OVCAR-5, read-out: Q1-LL, viable cells) | apoptosis (annexin V positive, early + late) (OVCAR5 cells [5]) | increment in the subpopulation of G2/M cells compared to the vehicle control (OVCAR5 cells [6]) | GI50 [7] | Ki (CDK1/cyclin B (CDK1B)) | Ki (CDK2/cyclin E (CDK2E)) | Ki (CDK5/p25 (CDK5p25)) | Ki (CDK9/cyclin T1 (CDK9T1)) |
| --- | --- | --- | --- | --- | --- | --- | --- | --- | --- | --- | --- | --- | --- | --- | --- |
| CC[C@H](Nc1nc(NCc2cnc(C)cc2C)c2ncn(C(C)C)c2n1)[C@@H](C)O [CYC065, reference compound] | 24% | 27% | lowest effect | 73% | 26% | reduced | reduced | 81.9% | 16% | 12% |  |  |  |  |  |
| Cn1cc(-c2nc(Nc3cccc(S(N)(=O)=O)c3)ncc2F)cn1 [Compound 1, 3-((5-fluoro-4-(1-methyl-1H-pyrazol-4-yl)pyrimidin-2-yl)amino)benzenesulfonamide] |  |  |  |  |  |  |  |  |  |  | 18 nM | 5 nM | 23 nM | 77 nM | 26 nM |

— publication PMC10096391, “Discovery of N,4-Di(1H-pyrazol-4-yl)pyrimidin-2-amine-Derived CDK2 Inhibitors as Potential Anticancer Agents: Design, Synthesis, and Evaluation” (Molecules, 2023)
